# Reference: patent US20240158446A1, “CYCLIC COMPOUND HAVING SELECTIVE INHIBITORY ACTION ON KRAS OVER HRAS AND NRAS” (CHUGAI SEIYAKU KABUSHIKI KAISHA, priority 2021, published 2024)
# Like-named read-outs stand apart in the source and are kept apart here.
# What was measured:
# [1] = biological target: GDP-bound HRAS wild-type protein (Homo sapiens, UniProt P01112); experiment: Binding to HRAS by surface plasmon resonance (SPR), Single Cycle Kinetics; details: for HRAS/KRAS (ratio of KD value with respect to GDP-bound HRAS wild-type protein to KD value with respect to KRAS): SPR KD ratio HRAS/KRAS, class symbols; for HRAS/KRAS (ratio of KD value for HRAS to KD value for KRAS): SPR, GDP-bound HRAS wild-type protein vs GDP-bound KRAS wild-type protein
# GDP-bound HRAS wild-type protein, sequence (P01112 whole entry): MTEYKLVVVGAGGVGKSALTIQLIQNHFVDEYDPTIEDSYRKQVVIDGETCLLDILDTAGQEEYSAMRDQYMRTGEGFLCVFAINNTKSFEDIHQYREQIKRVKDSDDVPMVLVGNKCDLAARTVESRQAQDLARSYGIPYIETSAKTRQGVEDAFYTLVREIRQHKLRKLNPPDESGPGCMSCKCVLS
# [2] = biological target: GDP-bound NRAS wild-type protein (Homo sapiens, UniProt P01111); experiment: Binding to NRAS by surface plasmon resonance (SPR), Single Cycle Kinetics; details: for NRAS/KRAS (ratio of KD value with respect to GDP-bound NRAS wild-type protein to KD value with respect to KRAS): SPR KD ratio NRAS/KRAS, class symbols; for NRAS/KRAS (ratio of KD value for NRAS to KD value for KRAS): SPR, GDP-bound NRAS wild-type protein vs GDP-bound KRAS wild-type protein
# GDP-bound NRAS wild-type protein, sequence (P01111 whole entry): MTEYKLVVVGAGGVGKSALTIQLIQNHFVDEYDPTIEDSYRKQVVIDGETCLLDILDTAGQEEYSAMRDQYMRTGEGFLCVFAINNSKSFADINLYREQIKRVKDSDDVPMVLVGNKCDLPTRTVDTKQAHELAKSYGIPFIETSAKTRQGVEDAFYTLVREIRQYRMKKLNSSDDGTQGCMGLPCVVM
# [3] = biological target: GDP-bound KRAS wild-type protein (Homo sapiens, UniProt P01116); experiment: Binding to KRAS by surface plasmon resonance (SPR), Single Cycle Kinetics; details: GDP-bound KRAS wild-type protein, read-out: KRAS KD
# GDP-bound KRAS wild-type protein, sequence (P01116 whole entry): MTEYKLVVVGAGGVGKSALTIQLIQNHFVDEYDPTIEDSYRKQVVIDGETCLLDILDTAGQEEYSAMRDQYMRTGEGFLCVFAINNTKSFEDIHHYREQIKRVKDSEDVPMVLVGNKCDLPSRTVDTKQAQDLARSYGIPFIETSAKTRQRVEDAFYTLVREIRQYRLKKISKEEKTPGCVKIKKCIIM
# [4] = tested on: human lung cancer strain NCI-H441;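 further: cell proliferation inhibition after four days measured by CellTiter-Glo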
# [5] = SPR Single Cycle Kinetics, 1:1 binding model
"Kd [3, 5] [nM]",IC50 [4] [nM],"Kd ([3]; SPR, Single Cycle Kinetics) [nM]","Kd ([3]; SPR, Single Cycle Kinetics, 1:1 binding model) [nM]",SMILES,HRAS/KRAS (ratio of KD value with respect to GDP-bound HRAS wild-type protein to KD value with respect to KRAS) [1],NRAS/KRAS (ratio of KD value with respect to GDP-bound NRAS wild-type protein to KD value with respect to KRAS) [2],HRAS/KRAS (ratio of KD value for HRAS to KD value for KRAS) [1],NRAS/KRAS (ratio of KD value for NRAS to KD value for KRAS) [2],HRAS/KRAS (ratio of KD value for HRAS to KD value for KRAS) ([1]; KD ratio class),NRAS/KRAS (ratio of KD value for NRAS to KD value for KRAS) ([2]; KD ratio class)
0.54,26.8,,,CCC[C@H]1C(=O)N[C@@H]([C@@H](C)CC)C(=O)N(C)CC(=O)N(C)[C@H]2C/C=C\CCN(C2=O)[C@@H](Cc2ccc(C(F)F)cc2)C(=O)N(C)CC(=O)N[C@@H](CCc2ccc(Cl)c(Cl)c2)C(=O)N2C[C@H](OC(C)C)C[C@H]2C(=O)NC2(CC(C)(C)C2)C(=O)N(C)[C@@H](C(CC)CC)C(=O)N(C)[C@H](C(=O)N(C)C)CC(=O)N1C [PP2535],A (a compound having 10 or more and less than 20 is denoted as A),AA (a compound having 20 or more is denoted as AA),,,,
,16.5,0.05,,"CC[C@H](C)[C@@H]1NC(=O)[C@H](CC)N(C)C(=O)C[C@@H](C(=O)N(C)C)N(C)C(=O)[C@H](C2CCCC2)N(C)C(=O)C2(CCC2)NC(=O)[C@@H]2C[C@@H](C(F)(F)F)CN2C(=O)[C@H](CCc2cc(F)c(C(F)(F)F)c(F)c2)NC(=O)CN(C)C(=O)[C@H](Cc2ccc(C(F)(F)F)cc2)N2CC/C=C\C[C@@H](C2=O)N(C)C(=O)CN(C)C1=O [PP1133, (2S,8S,12R,14S,20S,23S,27S,30S,36S,38Z)-20-cyclopentyl-8-[2-[3,5-difluoro-4-(trifluoromethyl)phenyl]ethyl]-27-ethyl-N,N,4,19,22,26,32,35-octamethyl-30-[(1S)-1-methylpropyl]-3,6,9,15,18,21,25,28,31,34,42-undecaoxo-12-(trifluoromethyl)-2-[[4-(trifluoromethyl)phenyl]methyl]spiro[1,4,7,10,16,19,22,26,29,32,35-undecazatricyclo[34.5.1.0^10,14]dotetracont-38-ene-17,1′-cyclobutane]-23-carboxamide]",,,A (a compound having 10 or more and less than 20 is denoted as A),A (a compound having 10 or more and less than 20 is denoted as A),,
,8.9,,0.061,"CCC[C@H]1C(=O)N[C@@H]([C@@H](C)CC)C(=O)N(C)CC(=O)N(C)[C@H]2C/C=C\CCN(C2=O)[C@@H](Cc2ccc(C(F)(F)F)cc2)C(=O)N(C)CC(=O)N[C@@H](CCc2ccc(C(F)(F)F)c(OC)c2)C(=O)N2C[C@H](OCC)C[C@H]2C(=O)NC2(CCC2)C(=O)N(C)[C@@H](C2CCCC2)C(=O)N(C)[C@H](C(=O)N(C)C)CC(=O)N1C [PP1244, (2S,8S,12R,14S,20S,23S,27S,30S,36S,38Z)-20-cyclopentyl-12-ethoxy-8-[2-[3-methoxy-4-(trifluoromethyl)phenyl]ethyl]-N,N,4,19,22,26,32,35-octamethyl-30-[(1S)-1-methylpropyl]-3,6,9,15,18,21,25,28,31,34,42-undecaoxo-27-propyl-2-[[4-(trifluoromethyl)phenyl]methyl]spiro[1,4,7,10,16,19,22,26,29,32,35-undecazatricyclo[34.5.1.0^10,14]dotetracont-38-ene-17,1′-cyclobutane]-23-carboxamide]",,,,,B (a compound having 3 or more and less than 10 is denoted as B),A (a compound having 10 or more and less than 20 is denoted as A)
4.9,374,,,CCC[C@H]1C(=O)N[C@@H](CC(C)C)C(=O)N(CCOC)CC(=O)N(C)[C@H]2C/C=C\CCN(C2=O)[C@@H](Cc2ccc(C)cc2)C(=O)N(C)CC(=O)N[C@@H](CCc2cc(F)c(C(F)(F)F)c(F)c2)C(=O)N2C[C@H](OCC)C[C@H]2C(=O)NC2(CCC2)C(=O)N(C)[C@@H](C2CCCC2)C(=O)N(C)[C@H](C(=O)N(C)C)CC(=O)N1C [PP2541],B (a compound having 3 or more and less than 10 is denoted as B),A (a compound having 10 or more and less than 20 is denoted as A),,,,
